Measurements published in ChEMBL document CHEMBL4715789, “Identification of a Potential Antimalarial Drug Candidate from a Series of 2-Aminopyrazines by Optimization of Aqueous Solubility and Potency across the Parasite Life Cycle” (J Med Chem, 2016).
≈ marks a conversion by molar mass, not a printed value.

What was measured:
[1] = Selectivity index, ratio of IC50 for cytotoxicity against CHO cells by MTT assay to IC50 for antiplasmodial activity against multidrug-sensitive Plasmodium falciparum NF54 infected in human erythrocytes; type: toxicity, cell-based; conditions: Chinese hamster, read-out: Ratio IC50
[2] = biological target: Voltage-gated inwardly rectifying potassium channel KCNH2 (Homo sapiens, UniProt Q12809); assay: Inhibition of human ERG by IonWorks patch clamp electrophysiology method
hERG (KCNH2) = assay: Selectivity ratio of IC50 for inhibition of human ERG by IonWorks patch clamp electrophysiology method to IC50 for antiplasmodial activity against multidrug-sensitive Plasmodium falciparum NF54 infected in human erythrocytes; type: toxicity, cell-based; conditions: read-out: Ratio IC50
[3] = Aqueous solubility of compound in pH 2 0.01M HCl incubated for 2 hrs under shaking condition by shake-flask method based HPLC-DAD analysis; type: physicochemical
[4] = Aqueous solubility of compound in pH 6.5 PBS incubated for 2 hrs under shaking condition by shake-flask method based HPLC-DAD analysis; type: physicochemical
[5] = Metabolic stability in human liver microsomes assessed as compound remaining at 0.1 uM measured after 30 mins in presence of cofactor NADPH by LC-MS/MS analysis; type: ADME, Microsome; conditions: read-out: Stabilty
[6] = Metabolic stability in rat liver microsomes assessed as compound remaining at 0.1 uM measured after 30 mins in presence of cofactor NADPH by LC-MS/MS analysis; type: ADME, Microsome; conditions: read-out: Stabilty
[7] = Metabolic stability in mouse liver microsomes assessed as compound remaining at 0.1 uM measured after 30 mins in presence of cofactor NADPH by LC-MS/MS analysis; type: ADME, Microsome; conditions: read-out: Stabilty
Plasmodium berghei [8] = assay: Antiplasmodial activity against Plasmodium berghei ANKA infected in NMRI mouse assessed as reduction in parasitemia at 10 mg/kg, po qd for 4 consecutive days measured at day 7 post infection by flow cytometry analysis; type: functional; parameters: scale not given: the % may be the effect or the level left; conditions: time 4 day
Plasmodium berghei [9] = assay: Antiplasmodial activity against Plasmodium berghei ANKA infected in NMRI mouse assessed as reduction in parasitemia at 3 mg/kg, po qd for 4 consecutive days measured at day 7 post infection by flow cytometry analysis; type: functional; parameters: scale not given: the % may be the effect or the level left; conditions: time 4 day
Plasmodium berghei [10] = assay: Antiplasmodial activity against Plasmodium berghei ANKA infected in NMRI mouse model assessed as mean survival days at 10 mg/kg, po qd for 4 consecutive day; type: functional; conditions: time 4 day
Plasmodium berghei [11] = assay: Antiplasmodial activity against Plasmodium berghei ANKA infected in NMRI mouse model assessed as mean survival days at 3 mg/kg, po qd for 4 consecutive day; type: functional; conditions: time 4 day
Plasmodium berghei [12] = assay: Antiplasmodial activity against Plasmodium berghei ANKA infected in NMRI mouse model assessed as reduction in parasitemia administered orally once a day for 4 consecutive days measured at day 7 post infection by flow cytometry analysis; type: functional; conditions: po, 96 h, time 4 day
Plasmodium falciparum [13] = assay: Antiplasmodial activity against Plasmodium falciparum 3D70087/N9 infected in NOD-SCID IL2Rgamma null mouse assessed as reduction in parasitemia administered orally on day 3 to 6 post-infection and measured day 7 post infection by TER-119-PE and […] dye based flow cytometry; type: functional; conditions: 3D70087/N9, po, 120 h, time 5 day
Plasmodium falciparum [14] = assay: Antimalarial activity against Plasmodium falciparum 3D70087/N9 infected in NOD-SCID IL2Rgamma null mouse assessed as blood AUC level require to show 90% reduction in parasitemia administered orally on day 3 to 6 post-infection and measured day 7 post infection; type: functional, organism-based; conditions: time 5.0 day
[15] = AUC(app) in NMRI mouse plasma infected with Plasmodium berghei ANKA at 3 mg/kg, po qd for 4 consecutive days and measured post last dose; type: ADME, organism-based; conditions: time 4 day
[16] = Cmax(app) in NMRI mouse plasma infected with Plasmodium berghei ANKA at 3 mg/kg, po qd for 4 consecutive days and measured post last dose; type: ADME, organism-based; conditions: time 4 day
[17] = Apparent average plasma concentration in NMRI mouse plasma infected with Plasmodium berghei ANKA at 3 mg/kg, po qd for 4 consecutive days and measured post last dose; type: ADME, organism-based; conditions: in vivo, 96 h, time 4 day
[18] = Half-life in Sprague-dawley rat at 20 mg/kg, po by LC-MS/MS analysis; type: ADME, organism-based; conditions: in vivo
[19] = Half-life in Sprague-dawley rat at 5 mg/kg, iv by LC-MS/MS analysis; type: ADME, organism-based; conditions: in vivo
[20] = Clearance in Sprague-dawley rat at 5 mg/kg, iv by LC-MS/MS analysis; type: ADME, organism-based; conditions: in vivo
[21] = Volume of distribution in Sprague-dawley rat at 5 mg/kg, iv by LC-MS/MS analysis; type: ADME, organism-based; conditions: in vivo
[22] = Oral bioavailability in Sprague-dawley rat at 20 mg/kg by LC-MS/MS analysis; type: ADME, organism-based; conditions: in vivo
Plasmodium berghei [23] = assay: Antiplasmodial activity against luciferase expressing Plasmodium berghei sporozoites infected in human HepG2 cells preincubated with compound for 18 hrs followed by plasmodium infection measured after 48 hrs by bioluminescence assay; type: functional, organism-based
Plasmodium falciparum [24] = assay: Antiplasmodial activity against late stage (IV/V) Plasmodium falciparum NF54 gametocytes incubated for 48 hrs by luciferase reporter gene assay; type: functional, organism-based; conditions: NF54, 48 h
Plasmodium falciparum [25] = assay: Antiplasmodial activity against early stage (II/III) Plasmodium falciparum NF54 gametocytes incubated for 48 hrs by luciferase reporter gene assay; type: functional, organism-based; conditions: NF54, 48 h
Plasmodium falciparum [26] = assay: microbe, parasite or virus in culture; conditions: NF54, Erythrocyte
Description: Antiplasmodial activity against multidrug-sensitive Plasmodium falciparum NF54 infected in human erythrocytes assessed as reduction in [3H]hypoxanthine incorporation preincubated for 48 hrs followed by [3H]hypoxanthine addition and measured after 24 hrs by liquid scintillation counting method

Plasmodium falciparum [27] = assay: microbe, parasite or virus in culture; conditions: K1, Erythrocyte
Description: Antiplasmodial activity against multidrug-resistant Plasmodium falciparum K1 infected in erythrocytes assessed as reduction in [3H]hypoxanthine incorporation preincubated for 48 hrs followed by [3H]hypoxanthine addition and measured after 24 hrs by liquid scintillation counting method

Plasmodium berghei [28] = assay: Antiplasmodial activity against Plasmodium berghei ANKA infected in NMRI mouse model assessed as mean survival days at 30 mg/kg, po qd for 4 consecutive days; type: functional; conditions: time 4 day
[29] = Half-life in Sprague-dawley rat at 10 mg/kg, po by LC-MS/MS analysis; type: ADME, organism-based; conditions: in vivo
[30] = Half-life in Sprague-dawley rat at 3 mg/kg, iv by LC-MS/MS analysis; type: ADME, organism-based; conditions: in vivo
[31] = Clearance in Sprague-dawley rat at 3 mg/kg, iv by LC-MS/MS analysis; type: ADME, organism-based; conditions: in vivo
[32] = Volume of distribution in Sprague-dawley rat at 3 mg/kg, iv by LC-MS/MS analysis; type: ADME, organism-based; conditions: in vivo
[33] = Oral bioavailability in Sprague-dawley rat at 10 mg/kg by LC-MS/MS analysis; type: ADME, organism-based; conditions: in vivo

Voltage-gated inwardly rectifying potassium channel KCNH2, sequence (Q12809 whole entry): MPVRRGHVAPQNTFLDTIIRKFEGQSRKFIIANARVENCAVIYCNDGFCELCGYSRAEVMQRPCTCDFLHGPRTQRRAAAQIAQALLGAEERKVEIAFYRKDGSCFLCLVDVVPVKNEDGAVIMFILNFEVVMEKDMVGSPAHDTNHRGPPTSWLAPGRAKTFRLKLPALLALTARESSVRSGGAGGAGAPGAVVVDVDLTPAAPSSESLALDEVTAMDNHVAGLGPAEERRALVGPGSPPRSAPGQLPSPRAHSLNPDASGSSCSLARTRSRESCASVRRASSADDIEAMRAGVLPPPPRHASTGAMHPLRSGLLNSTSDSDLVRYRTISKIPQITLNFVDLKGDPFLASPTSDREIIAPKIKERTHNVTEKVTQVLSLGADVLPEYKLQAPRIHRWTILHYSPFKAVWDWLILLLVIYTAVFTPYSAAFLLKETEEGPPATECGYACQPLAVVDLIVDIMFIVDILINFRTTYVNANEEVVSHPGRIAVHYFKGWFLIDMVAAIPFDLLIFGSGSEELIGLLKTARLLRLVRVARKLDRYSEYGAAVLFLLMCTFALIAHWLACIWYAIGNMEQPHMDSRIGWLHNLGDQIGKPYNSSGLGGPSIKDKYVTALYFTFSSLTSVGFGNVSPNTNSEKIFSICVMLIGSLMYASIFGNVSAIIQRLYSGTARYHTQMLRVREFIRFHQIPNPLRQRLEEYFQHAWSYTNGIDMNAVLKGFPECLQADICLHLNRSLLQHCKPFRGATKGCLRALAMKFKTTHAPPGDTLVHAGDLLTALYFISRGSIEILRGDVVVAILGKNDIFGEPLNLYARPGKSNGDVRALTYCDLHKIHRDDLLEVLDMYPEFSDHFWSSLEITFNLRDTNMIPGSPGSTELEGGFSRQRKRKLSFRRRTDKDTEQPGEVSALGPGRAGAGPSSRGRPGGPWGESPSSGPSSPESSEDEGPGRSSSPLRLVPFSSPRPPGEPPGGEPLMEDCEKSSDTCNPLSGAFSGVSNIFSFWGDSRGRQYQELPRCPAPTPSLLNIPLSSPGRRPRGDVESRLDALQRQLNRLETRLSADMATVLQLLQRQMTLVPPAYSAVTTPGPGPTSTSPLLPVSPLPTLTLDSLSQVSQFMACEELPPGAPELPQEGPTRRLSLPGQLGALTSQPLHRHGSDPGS

SMILES | selectivity ratio [1] | IC50 [2] [µM] | selectivity ratio (hERG (KCNH2)) | solubility thermodynamic at 2 h [3] [µM] | solubility thermodynamic at 2 h [4] [µM] | remaining at 0.5 h, 0.1 µM [5] [%] | remaining at 0.5 h, 0.1 µM [6] [%] | remaining at 0.5 h, 0.1 µM [7] [%] | Activity (Plasmodium berghei [8]) [%] | Activity (Plasmodium berghei [9]) [%] | MSD (Plasmodium berghei [10]) [days] | MSD (Plasmodium berghei [11]) [days] | ED90 (Plasmodium falciparum [13]) [mg/kg] | AUC (Plasmodium falciparum [14]) [ng·h/mL] | AUC at 96 h [15] [µM·h] | IC50 (Plasmodium berghei [23]) [nM] | IC50 (Plasmodium falciparum [24]) [nM] | IC50 (Plasmodium falciparum [25]) [nM] | IC50 (Plasmodium falciparum [26]) [nM] | IC50 (Plasmodium falciparum [27]) [nM] | also measured
Nc1ncc(-c2ccc(C(=O)N3CCNCC3)cc2)nc1-c1ccc(C(F)(F)F)cc1 | > 1800 | 10 | 1900 | 192 (≈ 82.1 µg/mL) | 158 (≈ 67.5 µg/mL) | > 90 | > 90 | > 90 | >99.9 | >99.9 | >30 | 10 | 0.25 | < 65 | 5.4 | 0.92 | 66 | 134 | 5.4 | 5.2 | ED90 (Plasmodium berghei [12]): 1 mg/kg; Cmax [16]: 0.4 µM; Cave [17]: 0.2 µM; half-life [18]: 318 min; half-life [19]: 468 min; clearance [20]: 10.3 mL/min/kg; Vd [21]: 5.5 L/kg; bioavailability [22]: 98%
C[C@H]1[C@H](OC(=O)CCC(=O)O)O[C@@H]2O[C@@]3(C)CC[C@H]4[C@H](C)CC[C@@H]1[C@@]24OO3 [ARTESUNATE] | – | – | – | – | – | – | – | – | – | – | – | – | – | – | – | – | – | – | 4 | 3 | MSD (Plasmodium berghei [28]): 10 days
NC(=O)c1ccc(-c2cnc(N)c(-c3ccc(C(F)(F)F)nc3)n2)cc1 | – | – | – | < 5 | < 5 | > 90 | > 90 | > 90 | – | – | 14 | 7.7 | – | – | 69.3 | – | – | – | 20 | 16 | Cmax [16]: 5 µM; Cave [17]: 2.9 µM
Nc1ncc(-c2ccc(C(=O)N3CC[C@@H](O)C3)cc2)nc1-c1ccc(C(F)(F)F)cc1 | > 1800 | > 33 | > 1000 | 103 (≈ 44.1 µg/mL) | 90 (≈ 38.6 µg/mL) | > 90 | > 90 | > 90 | 100 | – | 26 | 8 | 0.14 | 60 | 33.2 | 14 | 137 | 323 | 22 | 20 | ED90 (Plasmodium berghei [12]): 1.1 mg/kg; Cmax [16]: 3.29 µM; Cave [17]: 1.93 µM; half-life [18]: 432 min; half-life [19]: 318 min; clearance [20]: 13.5 mL/min/kg; Vd [21]: 8.2 L/kg; bioavailability [22]: 71%
Nc1ncc(-c2ccc(C(=O)N3CCC(O)CC3)cc2)nc1-c1ccc(C(F)(F)F)cc1 | > 1800 | > 33 | > 1000 | 119 (≈ 52.7 µg/mL) | 19 (≈ 8.41 µg/mL) | > 90 | > 90 | > 90 | 99.9 | – | 11 | 7 | 0.11 | 60 | – | 4.1 | 179 | 603 | 5.4 | 5 | half-life [29]: 324 min; half-life [30]: 486 min; clearance [31]: 7.1 mL/min/kg; Vd [32]: 5.1 L/kg; bioavailability [33]: 25%
Nc1ncc(-c2ccc(C(=O)N3CC(O)C3)cc2)nc1-c1ccc(C(F)(F)F)cc1 | > 1800 | – | – | 110 (≈ 45.6 µg/mL) | 55 (≈ 22.8 µg/mL) | > 90 | > 90 | > 90 | 99.9 | 99.7 | >30 | 10 | 0.17 | 22 | – | 2.7 | 45 | 415 | 9.2 | 7 | half-life [18]: 312 min; half-life [19]: 180 min; clearance [20]: 22 mL/min/kg; Vd [21]: 5.7 L/kg; bioavailability [22]: 20%
Nc1ncc(-c2ccc(C(=O)N3CCC(O)CC3)cc2)nc1-c1ccc(C(F)(F)F)nc1 | – | > 33 | > 868 | 200 (≈ 88.7 µg/mL) | 184 (≈ 81.6 µg/mL) | > 90 | > 90 | > 90 | 85 | 64 | 7 | 7 | – | – | – | – | – | – | 10 | 9 | –
